Laboratory results taken from US9808500B2, “Antithrombotic nanoparticle” (Washington University, priority 2009, dated 2017).
“Also recorded” adds a separate entry of the source.

Assays:
[1] = biological target: T1, thrombin (Homo sapiens, UniProt P00734); settings: thrombin inhibitor, quoted; cited from earlier work
[2] = biological target: T1, thrombin; test: Thrombin inhibition and inhibition kinetics with chromogenic substrate Chromozym TH; format: biochemical
Procedure: Tosyl-Gly-Pro-Arg-4 nitranilide acetate (Chromozym TH, Roche Applied Science) was employed to assay PPACK inhibition of thrombin and plasmin in accordance with previously described methods [31]. 100 μL of 12 nM thrombin was incubated for one minute at room temperature with selected amounts of PPACK or PPACK-nanoparticles or with an excess of bare nanoparticles. 500 μL (100 μM) of the thrombin substrate Tosyl-Gly-Pro-Arg-4 nitranilide acetate were added to terminate the PPACK-thrombin interaction. In accordance with previous work, thrombin activity against the substrate was measured via absorbance at 405 nm. The rate of change in absorbance at 405 nm was taken as representative of the amount of uninhibited thrombin available to cleave Chromozym TH.
In additional experiments, Chromozym TH was used to determine the kinetics of the PPACK-thrombin interaction. […] Thrombin activity was measured as above. Kinetics of inhibition were characterized in accordance with the work of Kettner and Shaw [26]. The assay yielded the apparent pseudo-first-order rate constant for thrombin inactivation (kapp). Modeling inhibition according to equation (1), an estimate of the second order constants (k2/Ki) for the PPACK-thrombin interaction and the PPACK nanoparticle-thrombin interaction were obtained via equation (2). To best obtain a pseudo-first-order reaction, thrombin dilution was maximized within the limits set by the sensitivity of the Chromozym TH assay.

[3] = tested on: C57BL/6 mice; test: Photochemical (rose bengal) injury, thrombotic occlusion of the carotid artery; format: in vivo, mouse; settings: for time to occlusion of the carotid artery: i.v. bolus 10 min before rose bengal, heparin 0.125 mg/kg, PPACK 12.5 mg/kg, nanoparticles 1 mL/kg; for effect on occlusion time / thrombus formation (in words): photochemical injury, C57BL/6 mice
From the text: As described in previous work, 10-12 week old male C57BL/6 mice (weight 25-30 g) were subjected to photochemical injury of the carotid. After anesthetization with sodium pentobarbital, the mice were secured under a dissecting microscope for isolation of the right common carotid artery via midline cervical incision. An ultrasonic flow probe (model 0.5 VB Transonic Systems, Ithaca, N.Y.) was applied to the artery to measure flow for the duration of each experiment. A 1.5 mW 540 nm HeNe laser (Melles Griot, Carlsbad, Calif.) was focused on the artery at a distance of 6 cm. […] In additional control experiments (n=4), no treatment preceded injection of the rose bengal dye. Occlusion of the carotid artery was noted and experiments were terminated upon the stable (>5 minutes) maintenance of zero flow.

[4] = biological target: T1, thrombin; settings: literature value; cited from earlier work
[5] = tested on: mice; settings: cited from earlier work
[6] = in vivo; cited from earlier work
[7] = Stability of the nanoparticle formulation (HPLC of unattached PPACK after storage); format: physicochemical; settings: PPACK particles: after dialysis and one week storage at four degrees
Procedure: To functionalize particles containing 1,2-distearoyl-sn-glycero-3-phosphoethanolamine-N-[carboxy(polyethylene glycol)-2000] with PPACK, amine-carboxyl coupling was employed to conjugate the PPACK N-terminus to the bare carboxyl groups on the synthesized particles. After one hour mixing of 1 mL emulsion with 12.5 mg PPACK, EDCI 1-[3-(Dimethylamino)propyl]-3-ethylcarbodiimide methiodide (2 mg) was added for overnight coupling. Excess PPACK and EDCI were removed by dialysis (MWCO 3000-5000). Particle size was assessed before and after PPACK conjugation as described above. Extent of PPACK coupling was determined by reverse-phase HPLC quantification of uncoupled PPACK after centrifugation of nanoparticles with Cleanascite lipid adsorption reagent (Agilent Technologies). […] PPACK was detected via phenylalanine absorbance (258 nm). Zeta potential measurements, taking into consideration hydrodynamic diameter measurements, were used for further verification of PPACK coupling (Brookhaven Instruments).

[8] = tested on: C57BL/6 mice; settings: heparin 0.125 mg/kg, rose bengal model; cited from earlier work

CN[C@H](Cc1ccccc1)C(=O)N1CCC[C@H]1C(=O)N[C@H](C=O)CCCN=C(N)N [Efegatran]
Ki [1]: 1.2 nM

NC(N)=NCCC[C@H](NC(=O)[C@@H]1CCCN1C(=O)[C@H](N)Cc1ccccc1)C(=O)CCl [PPACK, D-phenylalyl-L-prolyl-L-arginyl-chloromethyl ketone]
effect on thrombin activity against Chromozym TH (in words) [2]: no significant thrombin activity apparent beyond a ten-fold excess | pseudo-first-order rate constant kapp ([2]; 0.92 nM thrombin, 5 nM PPACK or 0.3 pM PPACK nanoparticles): 1.824 min⁻¹ | second order constant (k2/Ki), per PPACK ([2]; free PPACK or PPACK on the particles, 5 nM PPACK): 6.08e+06 M⁻¹ s⁻¹ | decay constant of thrombin activity with inhibitor concentration ([2]; one-minute incubation, per PPACK concentration): 0.026 nM⁻¹ | time to occlusion of the carotid artery [3]: 71 ± 19 min | effect on occlusion time / thrombus formation (in words) [3]: allowed a steady approach to complete occlusion; also recorded: did not delay occlusion time | second order constant found by Kettner and Shaw [4]: 2e+07 M⁻¹ s⁻¹ | LD50 [5]: greater than 50 mg/kg | long-term toxicity [5]: no long-term toxicity | distribution half-life [6]: 7 min | elimination (clearance) half-life [6]: 2.9 min

Bivalirudin nanoparticles: Bivalirudin conjugated at the N-terminus to Carboxy-PEG functionalized perfluorocarbon nanoparticles
stability of the nanoparticle formulation [7]: analogous coupling and stability characteristics | effect on occlusion time / thrombus formation (in words) [3]: Bivalirudin nanoparticles did

Bivalirudin: short synthetic peptide, specific and reversible direct thrombin inhibitor
effect on thrombin activity against Chromozym TH (in words) [2]: less active, but more specific than PPACK | effect on occlusion time / thrombus formation (in words) [3]: did not significantly extend occlusion time

Heparin
time to occlusion of the carotid artery [3]: 102 ± 13 min | effect on occlusion time / thrombus formation (in words) [3]: formation of a stable thrombus was noticeably delayed | occlusion time in previous trials [8]: 97 ± 18 min
